# Experiments:
# [1] = test system: LNCaP tumor-bearing CB17-SCID mice; assay: Biodistribution studies 24 h p.i.; type: in vivo; conditions: 177Lu-labelled, mean±SD, n=4-5; for biodistribution: tumor: LNCaP xenograft; for biodistribution: blood: i.v. tail vein
# Description: All animal experiments were conducted in accordance with general animal welfare regulations in Germany (German animal protection act, as amended on 18 May 2018, Art. 141 G v. 29.3.2017|626, approval no. 55.2-1-54-2532-71-13) and the institutional guidelines for the care and use of animals. To establish tumor xenografts, LNCaP cells (approx. 10^7 cells) were suspended in 200 μL of a 1:1 mixture (v/v) of DMEM F-12 and Matrigel (BD Biosciences, Germany), and inoculated subcutaneously onto the right shoulder of 6-8 weeks old CB17-SCID mice (Charles River, Sulzfeld, Germany). Mice were used for experiments when tumors had grown to a diameter of 5-10 mm (3-6 weeks after inoculation).
# Approximately 5-10 MBq (0.1-0.2 nmol) of the radioactive-labelled PSMA inhibitors were injected into the tail vein of LNCaP tumor-bearing male CB-17 SCID mice and sacrificed after 24 h post injection. Selected organs were removed, weighted and measured in a γ-counter.
# FIG. 10 and the following table show the biodistribution data 24 h p.i. of ^177Lu-labeled compounds in LNCaP tumor-bearing CB17-SCID mice. Data are expressed as mean±SD (n=4-5).
# [2] = target: human serum albumin (HSA) (Homo sapiens, UniProt P02768); assay: HSA binding by high performance affinity chromatography (HiPAC); type: in vitro ADME; set-up: purchased Daicel, Tokyo, Japan H13H-2433; conditions: lutetium-complexed; Chiralpak HSA column
# human serum albumin (HSA), sequence (P02768 25-609): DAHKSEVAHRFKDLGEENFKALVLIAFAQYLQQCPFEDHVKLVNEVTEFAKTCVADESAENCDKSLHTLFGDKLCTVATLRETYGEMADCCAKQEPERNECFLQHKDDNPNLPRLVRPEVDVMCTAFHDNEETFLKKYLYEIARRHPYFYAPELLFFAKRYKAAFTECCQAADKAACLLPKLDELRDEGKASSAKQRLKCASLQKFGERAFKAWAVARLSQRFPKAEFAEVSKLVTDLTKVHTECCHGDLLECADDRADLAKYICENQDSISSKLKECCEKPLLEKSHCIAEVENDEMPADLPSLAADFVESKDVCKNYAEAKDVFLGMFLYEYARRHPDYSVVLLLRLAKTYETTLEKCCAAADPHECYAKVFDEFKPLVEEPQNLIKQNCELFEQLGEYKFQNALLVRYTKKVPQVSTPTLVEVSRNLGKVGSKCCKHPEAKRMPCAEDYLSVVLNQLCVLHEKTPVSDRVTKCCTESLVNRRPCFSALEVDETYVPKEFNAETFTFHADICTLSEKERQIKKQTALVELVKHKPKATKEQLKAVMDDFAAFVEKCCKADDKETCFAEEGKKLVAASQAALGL
# Description: HSA binding of the PSMA-addressing ligands was determined according to a previously published procedure via HPLC (Valko, K.; Nunhuck, S.; Bevan, C.; Abraham, M. H.; Reynolds, D. P., Fast gradient HPLC method to determine compounds binding to human serum albumin. Relationships with octanol/water and immobilized artificial membrane lipophilicity. J Pharm Sci. 2003, 92, 2236-2248). A Chiralpak HSA column (50×3 mm, 5 μm, H13H-2433, Daicel, Tokyo, Japan) was used at a constant flow rate of 0.5 mL/min at rt. Mobile phase A was a freshly prepared 50 mM aqueous solution of NH4OAc (pH 6.9) and mobile phase B was isopropanol (HPLC grade, VWR). The applied gradient for all experiments was 100% A (0 to 3 min), followed by 80% A (3 to 40 min). Prior to the experiment, the column was calibrated using nine reference substances with a HSA binding, known from literature, in the range of 13 to 99% (Valko, K.; Nunhuck, S.; Bevan, C.; Abraham, M. H.; Reynolds, D. P., J Pharm Sci. 2003, 92, 2236-2248; Yamazaki, K.; Kanaoka, M., Computational prediction of the plasma protein-binding percent of diverse pharmaceutical compounds. J Pharm Sci. 2004, 93, 1480-1494). All substances, including the examined PSMA ligands, were dissolved in a 1:1 mixture (v/v) of isopropanol and a 50 mM aqueous solution of NH4OAc (pH 6.9) with a final concentration of 0.5 mg/mL. Non-linear regression was established with the OriginPro 2016G software (Northampton, United States).
# FIG. 1 is an exemplary sigmoidal plot, showing the correlation between human serum albumin (HSA) binding of selected reference substances and retention time (tR). The underlying values of HSA binding also shown in the corresponding table and were obtained from literature (Valko, K.; Nunhuck, S.; Bevan, C.; Abraham, M. H.; Reynolds, D. P., J Pharm Sci. 2003, 92, 2236-2248; Yamazaki, K.; Kanaoka, M., J Pharm Sci. 2004, 93, 1480-1494). Log tR: logarithmic value of experimentally determined retention time. Log K HSA: logarithmic value of HSA binding values.
# [3] = test system: LNCaP cells; assay: Internalization studies on LNCaP cells; type: cell-based; conditions: 177Lu-labelled, c=1.0 nM, 1 hour, 37 °C; % of reference ligand ([125I]I-BA)KuE (c=0.2 nM); corrected for non-specific binding (PMPA); mean±SD, n=3-6
# Description: PSMA-positive LNCAP cells (300265; Cell Lines Service, Eppelheim, Germany) were cultivated in Dulbecco modified Eagle medium/Nutrition Mixture F-12 with Glutamax (1:1) (DMEM-F12, Biochrom, Berlin, Germany) supplemented with fetal bovine serum (10%, FBS Zellkultur, Berlin, Germany) and kept at 37° C. in a humidified CO2 atmosphere (5%). A mixture of trypsin and EDTA (0.05%, 0.02%) in PBS (Biochrom) was used in order to harvest cells. Cells were counted with a Neubauer hemocytometer (Paul Marienfeld, Lauda-Königshofen, Germany).
# For internalization studies, LNCaP cells were harvested 24±2 hours before the experiment and seeded in poly-L-lysine coated 24-well plates (1.25×10^5 cells in 1 mL/well, Greiner Bio-One, Kremsmünster, Austria). After removal of the culture medium, the cells were washed once with 500 μL DMEM-F12 (5% BSA) and left to equilibrate for at least 15 min at 37° C. in 200 μL DMEM-F12 (5% BSA). Each well was treated with either 25 μL of either DMEM-F12 (5% BSA, control) or 25 μL of a 100 μM PMPA (2-(Phosphonomethyl)-pentandioic acid, Tocris Bioscience, Bristol, UK) solution in PBS, for blockade. Next, 25 μL of the radioactive-labelled PSMA inhibitor (10.0 nM in PBS) was added and the cells were incubated at 37° C. for 60 min. The experiment was terminated by placing the 24-well plate on ice for 3 min and consecutive removal of the medium. Each well was carefully washed with 250 μL of ice-cold HBSS. Both fractions from the first steps, representing the amount of free radioligand, were combined. Removal of surface bound activity was accomplished by incubation of the cells with 250 μL of ice-cold PMPA (10 μM in PBS) solution for 5 min and rinsed again with another 250 μL of ice-cold PBS. The internalized activity was determined by incubation of the cells in 250 μL 1 M aqueous NaOH for at least 10 min. The obtained fractions were combined with those of the subsequent wash step with 250 μL 1 M aqueous NaOH. Each experiment (control and blockade) was performed in triplicate. Free, surface bound and internalized activity was quantified in a γ-counter. All internalization studies were accompanied by external reference studies, using ([^125I]l-BA)KuE (c=0.2 nM), which were performed analogously. Data were corrected for non-specific binding and normalized to the specific-internalization observed for the radioiodinated reference compound.
# Data is corrected for non-specific binding (10 μmol PMPA) and expressed as mean±SD (n=3-6): […]
smiles,measurement,setting,value
CC(C)(C)[Si](O)(c1ccc(C(=O)NC[C@@H](NC(=O)CC[C@@H](C(=O)O)N2CCN(CC(=O)O)CCN(CC(=O)O)CCN(CC(=O)O)CC2)C(=O)NCC(=O)N[C@@H](CCCCNC(=O)CCC(=O)NCCC[C@@H](NC(=O)CC[C@H](NC(=O)N[C@@H](CCC(=O)O)C(=O)O)C(=O)O)C(=O)O)C(=O)O)cc1)C(C)(C)C [E102-SiOH],biodistribution: tumor,[1],4.4 ± 0.6 % ID/g
same,biodistribution: blood,[1],0.002 ± 0.001 % ID/g
same,biodistribution: adrenals,[1],0.05 ± 0.03 % ID/g
same,biodistribution: bone,[1],0.03 ± 0.01 % ID/g
same,biodistribution: heart,[1],0.02 ± 0.02 % ID/g
same,biodistribution: intestine,[1],0.43 ± 0.31 % ID/g
same,biodistribution: kidneys,[1],3.3 ± 2.9 % ID/g
same,biodistribution: liver,[1],0.05 ± 0.02 % ID/g
same,biodistribution: lung,[1],0.04 ± 0.02 % ID/g
same,biodistribution: muscle,[1],0.001 ± 0.001 % ID/g
same,biodistribution: pancreas,[1],0.01 ± 0.01 % ID/g
same,biodistribution: parotis,[1],0.02 ± 0.01 % ID/g
same,biodistribution: spleen,[1],0.13 ± 0.10 % ID/g
same,biodistribution: stomach,[1],0.08 ± 0.07 % ID/g
same,biodistribution: submandibularis,[1],0.01 ± 0.01 % ID/g
same,HSA-binding HiPAC,[2],95.1%
same,Internalization (% IBA),[3],203 ± 15 % IBA
CC(C)(C)[Si](O)(c1ccc(C(=O)NC[C@@H](NC(=O)CC[C@@H](C(=O)O)N2CCN(CC(=O)O)CCN(CC(=O)O)CCN(CC(=O)O)CC2)C(=O)N[C@H](CO)C(=O)NCCC(=O)NCCC(=O)NCCC[C@@H](NC(=O)CC[C@H](NC(=O)N[C@@H](CCC(=O)O)C(=O)O)C(=O)O)C(=O)O)cc1)C(C)(C)C [C007-SiOH],biodistribution: tumor,[1],5.4 ± 0.8 % ID/g
same,biodistribution: blood,[1],0.003 ± 0.001 % ID/g
same,biodistribution: adrenals,[1],0.20 ± 0.01 % ID/g
same,biodistribution: bone,[1],0.02 ± 0.01 % ID/g
same,biodistribution: heart,[1],0.02 ± 0.01 % ID/g
same,biodistribution: intestine,[1],0.13 ± 0.08 % ID/g
same,biodistribution: kidneys,[1],3.5 ± 1.4 % ID/g
same,biodistribution: liver,[1],0.40 ± 0.13 % ID/g
same,biodistribution: lung,[1],0.04 ± 0.01 % ID/g
same,biodistribution: muscle,[1],0.004 ± 0.001 % ID/g
same,biodistribution: pancreas,[1],0.01 ± 0.01 % ID/g
same,biodistribution: parotis,[1],0.06 ± 0.03 % ID/g
same,biodistribution: spleen,[1],0.40 ± 0.10 % ID/g
same,biodistribution: stomach,[1],0.04 ± 0.01 % ID/g
same,biodistribution: submandibularis,[1],0.03 ± 0.01 % ID/g
same,HSA-binding HiPAC,[2],86.3%
same,Internalization (% IBA),[3],185 ± 15 % IBA
"CC(C)(C)[Si](F)(c1ccc(C(=O)NC[C@@H](NC(=O)CC[C@@H](C(=O)O)N2CCN(CC(=O)O)CCN(CC(=O)O)CCN(CC(=O)O)CC2)C(=O)N[C@H](CCCCNC(=O)CCC(=O)NCCC[C@@H](NC(=O)CC[C@H](NC(=O)N[C@@H](CCC(=O)O)C(=O)O)C(=O)O)C(=O)O)C(=O)O)cc1)C(C)(C)C [rhPSMA-7.3, reference compound]",biodistribution: tumor,[1],7.6 ± 0.5 % ID/g
same,biodistribution: blood,[1],0.004 ± 0.002 % ID/g
same,biodistribution: bone,[1],0.02 ± 0.01 % ID/g
same,biodistribution: heart,[1],0.03 ± 0.01 % ID/g
same,biodistribution: intestine,[1],0.12 ± 0.03 % ID/g
same,biodistribution: kidneys,[1],13.2 ± 6.7 % ID/g
same,biodistribution: liver,[1],0.22 ± 0.03 % ID/g
same,biodistribution: lung,[1],0.06 ± 0.02 % ID/g
same,biodistribution: muscle,[1],0.012 ± 0.004 % ID/g
same,biodistribution: pancreas,[1],0.02 ± 0.01 % ID/g
same,biodistribution: parotis,[1],0.22 ± 0.16 % ID/g
same,biodistribution: spleen,[1],0.51 ± 0.22 % ID/g
same,biodistribution: stomach,[1],0.05 ± 0.01 % ID/g
same,biodistribution: submandibularis,[1],0.05 ± 0.02 % ID/g
same,HSA-binding HiPAC,[2],98.5%
same,Internalization (% IBA),[3],162 ± 14 % IBA

# From patent US20230277698A1, “SILICON-CONTAINING LIGAND COMPOUNDS” (Technische Universität München, priority 2020, published 2023)
